The values below are quoted from earlier work in US20210299202A1, “FORMULATION OF C[…]” (CARDINAL ADVISORY LIMITED, priority 2018, published 2021).

The conditions of series [1]: oral ingestion.
The conditions of series [2]: smoked, pulmonary absorption.

For the molecule `CCCCCc1cc(O)c2c(c1)OC(C)(C)[C@@H]1CCC(C)=C[C@@H]21` [THC, delta-9-tetrahydrocannabinol], the “time to peak plasma concentration” value in series [1] is 2 to 6 h. Besides, in series [2], the “time to peak plasma THC concentration” value is 6 to 10 min.
